Patent US6034134A, “1-Amino-alkylcyclohexane NMDA receptor antagonists” (Merz + Co. GmbH & Co., priority 1998, dated 2000)
Structures can show the parent of a compound that is named as a salt. Where two headings read alike, the source gives them in different places.

Legend:
NMDA receptor = assay: Patch clamp: NMDA-induced inward currents in cultured hippocampal neurones; type: cell-based, rat
Protocol: Hippocampi were obtained from rat embryos (E20 to E21) and were then transferred to calcium and magnesium free Hank's buffered salt solution (Gibco) on ice. Cells were mechanically dissociated in 0.05% DNAase/0.3% ovomucoid (Sigma) following an 8 minute pre-incubation with 0.66% trypsin/0.1% DNAase (Sigma). The dissociated cells were then centrifuged at 18 ×g for 10 minutes, re-suspended in minimum essential medium (Gibco) and plated at a density of 150,000 cells cm^-2 onto poly-L-lysine (Sigma)-precoated plastic petri dishes (Falcon). The cells were nourished with NaHCO3 /HEPES-buffered minimum essential medium supplemented with 5% fetal calf serum and 5% horse serum (Gibco) and incubated at 37° C. with 5% CO2 at 95% humidity. […] Thereafter the medium was exchanged partially twice weekly.
Patch clamp recordings were made from these neurones with polished glass electrodes (4-6 m.OMEGA.) in the whole cell mode at room temperature (20-22° C.) with the aid of an EPC-7 amplifier (List). Test substances were applied by switching channels of a custom-made fast superfusion system with a common outflow (10-20 ms exchange times). The contents of the intracellular solution were as follows (mM): CsCl (120), TEACl (20), EGTA (10), MgCl2 (1), CaCl2 -(0.2), glucose (10), ATP(2), cAMP (0.25); pH was adjusted to 7.3 with CsOH or HC1. The extracellular solutions had the following basic composition (mM): NaCl (140), KCl (3), CaCl2 (0.2), glucose (10), HEPES (10), sucrose (4.5), tetrodotoxin (TTX 3*10^-4). Glycine (1 μM) was present in all solutions: a concentration sufficient to cause around 80-85% activation of glycineB receptors. Only results from stable cells were accepted for inclusion in the final analysis, i.e., following recovery of responses to NMDA by at least 75% of their depression by the antagonists tested.
IC50 s in patch clamp, excitotoxicity, and binding studies were calculated according to the four parameter logistic equation using the Grafit computer program (Erithacus Software, England). Ki value for binding studies were then determined according to Cheng and Prusoff. Binding values presented are means±SEM of 3-5 determinations (each performed in duplicate). […] Pearson product moment correlation analysis (Sigma Stat, Jandel Scientific) was used to compare in vitro potencies and in vivo anticonvulsant activity.

[1] = Rotarod test (motor coordination, ataxia) in mice, therapeutic index versus MES; type: in vivo; settings: ED50 for rotarod failure divided by ED50 for MES; for selectivity ratio at 0.5 h: mouse, in vivo, ip, read-out: TI Rot.; for TI Rot.: 30 min
Protocol: All compounds were dissolved in 0.9% saline.
The MES test was performed together with tests for myorelaxant action (traction reflex) and motor coordination (rotarod). For the traction reflex test mice were placed with their forepaws on a horizontal rod and were required to place all 4 paws on the wire within 10 seconds. To test ataxia (motor coordination) mice were placed on rotarod (5 rpm) and were required to remain on the rod for 1 minute. […] These tests were followed by MES (100 Hz, 0.5 second shock duration, 50 mA shock intensity, 0.9 ms impulse duration, Ugo Basile) applied through corneal electrodes. The presence of tonic convulsions was scored (tonic extension of hind paws with minimum angle to the body of 90°). The aim was to obtain ED50 s for all parameters scored (anticonvulsive activity and motor side effects) with use of the Litchfield Wilcoxon test for quantal dose responses. Division of the ED50 for side effects (ataxia or myorelaxation) by the ED50 for antagonism of electroshock convulsions was used as a therapeutic index (TI).
IC50 s in patch clamp, excitotoxicity, and binding studies were calculated according to the four parameter logistic equation using the Grafit computer program (Erithacus Software, England). Ki value for binding studies were then determined according to Cheng and Prusoff. […] Pearson product moment correlation analysis (Sigma Stat, Jandel Scientific) was used to compare in vitro potencies and in vivo anticonvulsant activity.

[2] = Solubility (analytical certificates); type: physicochemical
[3] = Table 7; NMDA 200 μM with glycine 1 μM at -70 mV; read-out: Patch Clamp IC50
[4] = Table 9; NMDA-induced currents; read-out: Patch Clamp IC50
[5] = read-out: Patch Clamp IC50; Table 7; NMDA 200 μM with glycine 1 μM at -70 mV
[6] = read-out: Patch Clamp IC50; Table 9; NMDA-induced currents

C[C@@H]1CC(C)(C)C[C@@](C)(N)C1 (relative stereo) [Mrz 2/607]
IC50 (NMDA receptor; [3]): 13.8 µM
IC50 (NMDA receptor; [4]): 13.8 µM

CCC[C@@]1(C)C[C@H](C)C[C@@](C)(N)C1 (relative stereo) [Mrz 2/618]
IC50 (NMDA receptor; [3]): 43.7 µM
IC50 (NMDA receptor; [4]): 57.5 µM

CCC[C@]1(C)C[C@@H](C)C[C@@](C)(N)C1 (relative stereo) [Mrz 2/619]
IC50 (NMDA receptor; [3]): 60.8 µM
IC50 (NMDA receptor; [4]): 60.9 µM

CC[C@@]1(C)C[C@H](C)C[C@@](C)(N)C1 (relative stereo) [Mrz 2/622]
IC50 (NMDA receptor; [3]): 64.8 µM
IC50 (NMDA receptor; [4]): 58.2 µM

CC[C@]1(C)C[C@@H](C)C[C@@](C)(N)C1 (relative stereo) [Mrz 2/624]
IC50 (NMDA receptor; [3]): 31 µM
IC50 (NMDA receptor; [4]): 31 µM

C[C@@H]1CCC[C@@](C)(N)C1 (relative stereo) [Mrz 2/625]
IC50 (NMDA receptor; [3]): 245 µM
IC50 (NMDA receptor; [4]): 245 µM

CCC[C@@H]1CCC[C@@](C)(N)C1 (relative stereo) [Mrz 2/627]
IC50 (NMDA receptor; [3]): 210 µM
IC50 (NMDA receptor; [4]): 150 µM

CCC[C@H]1CCC[C@@](C)(N)C1 (relative stereo) [Mrz 2/628]
IC50 (NMDA receptor; [3]): 126 µM
IC50 (NMDA receptor; [4]): 126 µM

CC[C@@H]1CCC[C@@](C)(N)C1 (relative stereo) [Mrz 2/629]
IC50 (NMDA receptor; [3]): 219 µM
IC50 (NMDA receptor; [4]): 219 µM

CC[C@H]1CCC[C@@](C)(N)C1 (relative stereo) [Mrz 2/630]
IC50 (NMDA receptor; [3]): > 100 µM
IC50 (NMDA receptor; [4]): 100 µM

C[C@H]1CCC[C@@](C)(N)C1 (relative stereo) [Mrz 2/631]
IC50 (NMDA receptor; [3]): > 100 µM
IC50 (NMDA receptor; [4]): > 100 µM

CC[C@H]1CC(C)(C)C[C@@](C)(N)C1 (relative stereo) [Mrz 2/632]
IC50 (NMDA receptor; [3]): 6.4 µM
IC50 (NMDA receptor; [4]): 6.4 µM

CC[C@@H]1CC(C)(C)C[C@@](C)(N)C1 (relative stereo) [Mrz 2/633]
IC50 (NMDA receptor; [3]): 13.9 µM
IC50 (NMDA receptor; [4]): 13.9 µM

CCC[C@@H]1CC(C)(C)C[C@](C)(N)C1 (relative stereo) [Mrz 2/634]
IC50 (NMDA receptor; [3]): 10.8 µM
IC50 (NMDA receptor; [4]): 10.8 µM

CCC[C@@H]1CC(C)(C)C[C@@](C)(N)C1 (relative stereo) [Mrz 2/635]
IC50 (NMDA receptor; [3]): 21 µM
IC50 (NMDA receptor; [4]): 21 µM

C[C@H]1CC(C)(C)C[C@@](C)(N)C1 (relative stereo) [Mrz 2/643]
selectivity ratio at 0.5 h [1]: 2.4
IC50 (NMDA receptor; [3]): 13.5 µM
IC50 (NMDA receptor; [4]): 13.5 µM

C[C@@H]1C[C@H](C)C[C@@](C)(N)C1 [MRZ 2/680, 1,trans-3,trans-5-Trimethylcyclohexylamine hydrochloride]
Solubility [2]: soluble in water, chloroform
selectivity ratio at 0.5 h [1]: 1.1
IC50 (NMDA receptor; [4]): 43 µM

C[C@@H]1C[C@H](C)C[C@](C)(N)C1 [MRZ 2/681, 1,cis-3,cis-5-Trimethylcyclohexylamine hydrochloride hydrate]
Solubility [2]: soluble in water, chloroform
selectivity ratio at 0.5 h [1]: 5.8
IC50 (NMDA receptor; [4]): 30 µM

CC[C@H]1CC(C)(C)C[C@](C)(N)C1 [MRZ 2/682, (1R, 5S) trans-3-Ethyl-1,5,5-trimethylcyclohexylamine hydrochloride]
Solubility [2]: soluble in chloroform, poor soluble in water
selectivity ratio at 0.5 h [1]: 3.6
IC50 (NMDA receptor; [4]): 3.9 µM

CC[C@H]1CC(C)(C)C[C@@](C)(N)C1 [MRZ 2/683, (1S, 5S) cis-3-Ethyl-1,5,5-trimethylcyclohexylamine hydrochloride hydrate]
Solubility [2]: soluble in chloroform, poor soluble in water
selectivity ratio at 0.5 h [1]: 3.5
IC50 (NMDA receptor; [4]): 4.3 µM

CC1(C)CC(N)CC(C)(C)C1 [Mrz 2/557]
IC50 (NMDA receptor; [3]): 18.5 µM
IC50 (NMDA receptor; [4]): 18.5 µM

CC1(C)CC(CN)CC(C)(C)C1.Cl [Mrz 2/580, 3,3,5,5-tetramethylcyclohexylmethylamine hydrochloride]
IC50 (NMDA receptor; [3]): 12.9 µM
IC50 (NMDA receptor; [4]): 12.9 µM

CCC1(N)CC(C)(C)CC(C)(C)C1 [Mrz 2/600, 1-amino-1-ethyl-3,3,5,5-tetramethylcyclohexane]
IC50 (NMDA receptor; [3]): 3.7 µM
IC50 (NMDA receptor; [4]): 3.49 µM

CCCC1(N)CC(C)(C)CC(C)(C)C1 [Mrz 2/601, 1-amino-1-propyl-3,3,5,5-tetramethylcyclohexane]
TI Rot. [1]: 1.5
IC50 (NMDA receptor; [5]): 10.5 µM
IC50 (NMDA receptor; [6]): 10 µM

CCCC1(C)CC(C)(C)CC(C)(N)C1 (stereo not drawn) [Mrz 2/614]
selectivity ratio at 0.5 h [1]: 1.6
IC50 (NMDA receptor; [3]): 13.9 µM
IC50 (NMDA receptor; [4]): 13.9 µM

CCC1(C)CC(C)(C)CC(C)(N)C1 (stereo not drawn) [Mrz 2/615, 1-amino-1,3,5,5-tetramethyl-3-ethylcyclohexane]
IC50 (NMDA receptor; [3]): 2.9 µM
IC50 (NMDA receptor; [4]): 2.9 µM

CC1CC(C)CC(C)(N)C1 (stereo not drawn) [Mrz 2/616, 1-amino-1,3,5-trimethylcyclohexane]
Solubility [2]: soluble in svater, chloroform
IC50 (NMDA receptor; [3]): 34.2 µM
IC50 (NMDA receptor; [4]): 33.2 µM

CCCC1(C)CCCC(C)(N)C1 (stereo not drawn) [Mrz 2/617]
selectivity ratio at 0.5 h [1]: 1.1
IC50 (NMDA receptor; [3]): 57.4 µM
IC50 (NMDA receptor; [4]): 63.9 µM

CCC1(C)CCCC(C)(N)C1 (stereo not drawn) [Mrz 2/620]
selectivity ratio at 0.5 h [1]: 1.5
IC50 (NMDA receptor; [3]): 99 µM
IC50 (NMDA receptor; [4]): 99 µM

CC1(C)CCCC(C)(N)C1 (stereo not drawn) [Mrz 2/621]
selectivity ratio at 0.5 h [1]: 1.5
IC50 (NMDA receptor; [5]): 92.4 µM
IC50 (NMDA receptor; [6]): 92.4 µM

CCC1(CC)CC(C)(C)CC(C)(N)C1 (stereo not drawn) [Mrz 2/623, 1-amino-1,5,5-trimethyl-3,3-diethylcyclohexane]
IC50 (NMDA receptor; [3]): 3.7 µM
IC50 (NMDA receptor; [4]): 3.7 µM

CCCC1(CCC)CC(C)(C)CC(C)(N)C1 (stereo not drawn) [Mrz 2/626]
selectivity ratio at 0.5 h [1]: 1
IC50 (NMDA receptor; [3]): 9.6 µM
IC50 (NMDA receptor; [4]): 9.6 µM

CCNC1(C)CC(C)(C)CC(C)(C)C1 [Mrz 2/639, N-ethyl-1-amino-1,3,3,5,5-pentamethylcyclohexane]
IC50 (NMDA receptor; [3]): 7.4 µM
IC50 (NMDA receptor; [4]): 7.4 µM

CNC1(C)CC(C)(C)CC(C)(C)C1.Cl [Mrz 2/640, N,1,3,3,5,5-hexamethylcyclohexanamine hydrochloride]
IC50 (NMDA receptor; [3]): 14.6 µM
IC50 (NMDA receptor; [4]): 14.6 µM

CC1(N)CCCCC1 [Mrz 2/641]
IC50 (NMDA receptor; [3]): > 100 µM
IC50 (NMDA receptor; [4]): > 100 µM

CN(C)C1(C)CC(C)(C)CC(C)(C)C1 [Mrz 2/642]
TI Rot. [1]: 5.3
IC50 (NMDA receptor; [5]): 42.5 µM
IC50 (NMDA receptor; [6]): 42.5 µM

CC1(C)CC(CCN)CC(C)(C)C1 [Mrz 2/644]
IC50 (NMDA receptor; [3]): 4.1 µM
IC50 (NMDA receptor; [4]): 4.1 µM

CC(C)(N)CC1CC(C)(C)CC(C)(C)C1 [Mrz 2/645]
selectivity ratio at 0.5 h [1]: 0.6
IC50 (NMDA receptor; [3]): 20.4 µM
IC50 (NMDA receptor; [4]): 20.4 µM
